Results published in US20250312341A1, “METHODS FOR TREATING PATIENTS WITH LOCALLY ADVANCED AND/OR METASTATIC SOLID TUMORS USING A DGK ZETA INHIBITOR” (ASTELLAS PHARMA INC., priority 2022, published 2025).

What was measured:
[1] = 4-week repeated dose toxicity study in rats; type: in vivo
Description: (§1) Compound I has been tested in numerous preclinical studies. Data from the 4-week repeated dose toxicity study in rats and 4-week repeated dose toxicity study in cynomolgus monkeys determined STD10 in rats to be 30 mg/kg/day and the HNSTD in cynomolgus monkeys to be 3 mg/kg/day. Human equivalent doses based on body surface area conversion (conversion factors: 0.16 for rat, 0.32 for monkey) of the STD10 in rats and the HNSTD in cynomolgus monkeys are 4.8 mg/kg and 0.96 mg/kg, respectively. For a person of 60 kg body weight, one tenth of the rat STD10 is 28.8 mg (4.8 mg/kg× 1/10×60 kg) and one sixth of the HNSTD is 9.6 mg (0.96 mg/kg×⅙×60 kg). Cynomolgus monkey is the more sensitive species. Therefore, based on cynomolgus monkey HNSTD, the starting dose in human is judged to be 9.6 mg/participant once daily (QD) given orally (actual starting dose will be 10 mg based on 10 mg tablet strength).

[2] = 4-week repeated dose toxicity study in cynomolgus monkeys; type: in vivo
Description: as §1

[3] = molecular target: DGKζ (Homo sapiens, UniProt Q13574); assay: Nonclinical pharmacology: inhibition of DGKζ activity; type: biochemical; conditions: nonclinical pharmacology studies
Chain of DGKζ (Q13574 whole entry, species assumed): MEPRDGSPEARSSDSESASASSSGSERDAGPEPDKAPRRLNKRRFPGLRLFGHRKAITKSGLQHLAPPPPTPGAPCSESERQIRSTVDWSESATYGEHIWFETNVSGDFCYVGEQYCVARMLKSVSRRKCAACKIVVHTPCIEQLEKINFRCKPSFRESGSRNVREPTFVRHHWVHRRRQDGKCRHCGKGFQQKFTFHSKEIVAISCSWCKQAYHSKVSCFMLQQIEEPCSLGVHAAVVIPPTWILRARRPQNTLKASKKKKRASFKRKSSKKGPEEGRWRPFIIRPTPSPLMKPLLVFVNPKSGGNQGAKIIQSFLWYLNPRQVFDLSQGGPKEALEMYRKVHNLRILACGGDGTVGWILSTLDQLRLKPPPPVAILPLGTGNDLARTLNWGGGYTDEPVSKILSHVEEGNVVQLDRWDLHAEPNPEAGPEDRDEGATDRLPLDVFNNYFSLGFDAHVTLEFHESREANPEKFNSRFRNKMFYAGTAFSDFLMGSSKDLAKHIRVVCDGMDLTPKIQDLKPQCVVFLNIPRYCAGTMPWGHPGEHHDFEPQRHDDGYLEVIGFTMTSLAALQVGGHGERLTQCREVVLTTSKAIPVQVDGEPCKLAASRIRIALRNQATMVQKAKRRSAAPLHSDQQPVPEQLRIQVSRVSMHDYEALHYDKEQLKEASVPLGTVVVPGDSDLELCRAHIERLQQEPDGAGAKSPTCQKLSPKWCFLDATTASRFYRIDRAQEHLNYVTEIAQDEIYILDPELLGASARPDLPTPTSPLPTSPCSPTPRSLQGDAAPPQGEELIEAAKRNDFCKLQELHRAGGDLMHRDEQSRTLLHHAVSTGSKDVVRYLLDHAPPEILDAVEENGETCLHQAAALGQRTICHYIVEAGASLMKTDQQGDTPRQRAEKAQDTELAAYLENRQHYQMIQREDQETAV

[4] = system: T cell; assay: Nonclinical pharmacology: DAG downstream pathway and T cell activation upon TCR stimulation; type: cell-based
[5] = system: syngeneic mouse models (inflamed tumor and TIL-poor tumor models); assay: Antitumor efficacy in syngeneic mouse tumor models; type: in vivo
[6] = system: peripheral blood mononuclear cells (PBMCs); assay: Preclinical in vitro CD69 expression by PBMCs after TCR mediated stimulation; type: cell-based; conditions: after the TCR mediated stimulation
Text: The whole blood samples will be collected from the treated patients to evaluate pharmacodynamics effects of the Compound I. The preclinical in vitro studies have identified CD69 expression by peripheral blood mononuclear cells (PBMCs) as the best pharmacodynamic biomarker candidate. The CD69 is early activation biomarker expressed by many immune cells including T-cells. […] To evaluate the pharmacodynamics effect of Compound I, the PBMCs will be isolated and stimulated in vitro by CD3/CD28; the expression of the CD69 will be measured by flow cytometry.

[7] = Nonclinical safety assessments; type: in vivo

For `CNC[C@H]1CN(c2c(NC(=O)c3ccn(-c4ccnnc4)n3)ccc(Oc3ccccc3F)c2C(F)(F)F)CCN1C` [Compound I, N-[4-(2-Fluorophenoxy)-2-{(3S)-4-methyl-3-[(methylamino)methyl]piperazin-1-yl}-3-(trifluoromethyl)phenyl]-1-(pyridazin-4-yl)-1H-pyrazole-3-carboxamide], the “Human equivalent dose of the STD10 in rats” value ([1]; body surface area conversion, factor 0.16 for rat) was 4.8 mg/kg, the STD10 ([1]; rats, 4-week repeated dose) was 30 mg/kg/day and the “Human equivalent dose of the HNSTD in cynomolgus monkeys” value ([2]; body surface area conversion, factor 0.32 for monkey) was 0.96 mg/kg. The HNSTD ([2]; cynomolgus monkeys, 4-week repeated dose) was 3 mg/kg/day, the DGKζ activity [3] was “inhibits DGKζ activity” and the “activation of DAG downstream pathways and T cell activation” value [4] was “enhances activation of DAG downstream pathways as well as T cell activation”. For the same compound, the Anti-tumor efficacy ([5]; anti-PD-1 poor-responsive syngeneic mouse models as well as responsive models) was “demonstrated”, the antitumor efficacy ([5]; oral administration, inflamed tumor and TIL-poor tumor models) was “demonstrated antitumor efficacy” and the “expression of CD69” value [6] was “induces increased expression of CD69”. The nonclinical safety findings [7] was “risk of effect on body weight, gastrointestinal tract, electrocardiogram (ECG) parameters, hemodynamic and body temperature, lymphohematopoietic system and reproductive toxicity”.
